Reference: PubChem BioAssay (NCI)
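Method: 48-hour compound exposure of cells in 96-well plates, five concentrations, linear interpolation of endpoints. TGI: concentration producing complete growth inhibition.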

Legend:
Assay in all cases: growth of human tumour cells (NCI), 48 h
A498 renal = test system: A498 renal
A549 NSCLC = test system: A549 NSCLC
ACHN renal = test system: ACHN renal
BT-549 breast = test system: BT-549 breast
CAKI-1 renal = test system: CAKI-1 renal
COLO 205 colon = test system: COLO 205 colon
DU-145 prostate = test system: DU-145 prostate
EKVX NSCLC = test system: EKVX NSCLC
HCC-2998 colon = test system: HCC-2998 colon
HCT-15 colon = test system: HCT-15 colon
HL-60(TB) leukemia = test system: HL-60(TB) leukemia
HOP-62 NSCLC = test system: HOP-62 NSCLC
HOP-92 NSCLC = test system: HOP-92 NSCLC
HS 578T breast = test system: HS 578T breast
HT29 colon = test system: HT29 colon
IGROV1 ovarian = test system: IGROV1 ovarian
K-562 leukemia = test system: K-562 leukemia
M14 melanoma = test system: M14 melanoma
MALME-3M melanoma = test system: MALME-3M melanoma
MDA-MB-231 breast = test system: MDA-MB-231 breast
MDA-MB-435 = test system: MDA-MB-435
MDA-N = test system: MDA-N
MOLT-4 leukemia = test system: MOLT-4 leukemia
NCI-H226 lung = test system: NCI-H226 lung
NCI-H23 lung = test system: NCI-H23 lung
NCI-H460 lung = test system: NCI-H460 lung
NCI-H522 lung = test system: NCI-H522 lung
NCI/ADR-RES ovarian = test system: NCI/ADR-RES ovarian
OVCAR-3 ovarian = test system: OVCAR-3 ovarian
OVCAR-4 ovarian = test system: OVCAR-4 ovarian
OVCAR-5 ovarian = test system: OVCAR-5 ovarian
OVCAR-8 ovarian = test system: OVCAR-8 ovarian
PC-3 prostate = test system: PC-3 prostate
RPMI-8226 leukemia = test system: RPMI-8226 leukemia
SF-268 CNS = test system: SF-268 CNS
SK-MEL-2 melanoma = test system: SK-MEL-2 melanoma
SK-MEL-28 melanoma = test system: SK-MEL-28 melanoma
SK-MEL-5 melanoma = test system: SK-MEL-5 melanoma
SN12C renal = test system: SN12C renal
SNB-19 CNS = test system: SNB-19 CNS
SNB-75 CNS = test system: SNB-75 CNS
SW-620 colon = test system: SW-620 colon
T-47D breast = test system: T-47D breast
TK-10 renal = test system: TK-10 renal
U251 CNS = test system: U251 CNS
UACC-257 melanoma = test system: UACC-257 melanoma
UO-31 renal = test system: UO-31 renal
786-0 renal = test system: 786-0 renal
CCRF-CEM leukemia = test system: CCRF-CEM leukemia
HCT-116 colon = test system: HCT-116 colon
KM12 colon = test system: KM12 colon
LOX IMVI melanoma = test system: LOX IMVI melanoma
RXF 393 renal = test system: RXF 393 renal
SF-295 CNS = test system: SF-295 CNS
SK-OV-3 ovarian = test system: SK-OV-3 ovarian
SR leukemia = test system: SR leukemia
UACC-62 melanoma = test system: UACC-62 melanoma

Measured: TGI

COC(=O)/C=C\n1ncc(=O)[nH]c1=O
not listed: 786-0 renal | CCRF-CEM leukemia | HCT-116 colon | KM12 colon | LOX IMVI melanoma | RXF 393 renal | SF-295 CNS | SK-OV-3 ovarian | SR leukemia | UACC-62 melanoma
> 100 µM: all other assays above

O=[N+]([O-])c1ccc(N=Nc2c(O)ccc3cc(S(=O)(=O)O)cc(S(=O)(=O)O)c23)cc1
not listed: HCC-2998 colon | HL-60(TB) leukemia | NCI-H460 lung
> 100 µM: all other assays above

Cc1ccccc1N=Nc1cc(C)c(N=Nc2c(O)ccc3ccccc23)cc1C
not listed: HCC-2998 colon | HL-60(TB) leukemia | NCI-H460 lung | SR leukemia
> 100 µM: all other assays above
